This passage reports melting point and IC50 results from patent US6828341B2, “Cyclohexylamine derivatives as subtype selective N-Methyl-D-Aspartate antagonists” (Warner-Lambert Company, priority 2001, dated 2004).

The target in data set [1] is T1, NR1A/NR2B NMDA receptor subtype (Rattus norvegicus, UniProt P35439+Q00960).
T1 construct: membrane fraction was prepared from frozen adult rat forebrains; tissue Zivic-Miller Laboratories, Inc; host or cells: adult rat forebrain, washed buffy coat membrane fraction
T1 sequence (Q00960 27-1482, other chains not shown): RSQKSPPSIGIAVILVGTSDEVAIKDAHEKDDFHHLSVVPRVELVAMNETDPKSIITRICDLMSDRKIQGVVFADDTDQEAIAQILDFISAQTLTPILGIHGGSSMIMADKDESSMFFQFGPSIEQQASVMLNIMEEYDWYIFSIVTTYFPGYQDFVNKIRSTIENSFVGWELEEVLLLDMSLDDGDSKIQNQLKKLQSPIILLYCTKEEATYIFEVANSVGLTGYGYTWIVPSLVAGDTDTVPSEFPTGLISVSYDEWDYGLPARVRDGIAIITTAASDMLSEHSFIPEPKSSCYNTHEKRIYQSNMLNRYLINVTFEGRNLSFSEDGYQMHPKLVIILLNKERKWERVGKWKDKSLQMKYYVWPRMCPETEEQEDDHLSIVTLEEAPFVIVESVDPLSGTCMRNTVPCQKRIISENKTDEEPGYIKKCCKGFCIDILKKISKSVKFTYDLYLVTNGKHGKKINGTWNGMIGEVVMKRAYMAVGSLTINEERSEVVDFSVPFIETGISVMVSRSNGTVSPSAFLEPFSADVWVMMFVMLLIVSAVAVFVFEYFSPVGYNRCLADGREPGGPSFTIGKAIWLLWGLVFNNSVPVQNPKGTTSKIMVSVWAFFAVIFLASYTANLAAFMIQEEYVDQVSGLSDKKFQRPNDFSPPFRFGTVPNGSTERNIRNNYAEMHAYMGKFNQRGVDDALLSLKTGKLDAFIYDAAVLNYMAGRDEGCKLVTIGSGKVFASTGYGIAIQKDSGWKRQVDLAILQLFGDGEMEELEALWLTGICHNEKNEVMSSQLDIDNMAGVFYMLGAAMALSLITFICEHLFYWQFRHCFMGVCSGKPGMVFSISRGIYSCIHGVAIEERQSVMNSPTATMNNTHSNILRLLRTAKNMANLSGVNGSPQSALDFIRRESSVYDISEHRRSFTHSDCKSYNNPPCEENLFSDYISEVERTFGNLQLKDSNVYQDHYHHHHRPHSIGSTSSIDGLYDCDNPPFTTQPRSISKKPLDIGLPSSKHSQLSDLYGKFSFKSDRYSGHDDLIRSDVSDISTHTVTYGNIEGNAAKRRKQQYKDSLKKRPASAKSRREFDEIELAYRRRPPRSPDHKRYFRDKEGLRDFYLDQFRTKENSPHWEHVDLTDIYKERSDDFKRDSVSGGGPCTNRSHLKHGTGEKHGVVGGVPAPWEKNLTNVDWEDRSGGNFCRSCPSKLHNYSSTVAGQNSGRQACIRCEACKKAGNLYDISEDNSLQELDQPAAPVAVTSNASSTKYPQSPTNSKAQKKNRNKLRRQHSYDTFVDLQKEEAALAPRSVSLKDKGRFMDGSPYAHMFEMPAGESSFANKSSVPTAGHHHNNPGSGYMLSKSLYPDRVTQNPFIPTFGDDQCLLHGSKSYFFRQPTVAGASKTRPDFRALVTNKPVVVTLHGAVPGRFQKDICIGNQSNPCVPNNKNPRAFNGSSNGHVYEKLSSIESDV
Put plainly: [3H]Ifenprodil binding assay (IFPNR). Particulars: displacement of 4 nM [3H]-ifenprodil, adult rat forebrain membranes, 2 hours at room temperature, pH 7.4. The method, then: (b) [^3H]Ifenprodil Binding Assay (IFPNR) Protocol:
Ifenprodil, [phenyl-^3H]-(specific activity, 66.2 Ci/mmol) was purchased from Dupont NEN Research Products (Boston, Mass.). Ifenprodil tartrate was purchased from Research Biochemicals International (Natick, Mass.). HEPES, glutamate, and glycine were purchased from Sigma Chemical Co. (St. Louis, Mo.).
All buffers and reagents used in assay incubations or to dissolve drugs were prepared using water purified through a Milli-Q reverse osmosis system (Millipore Corp., Bedford, Mass.) and treated with UV emissions. Prior to use in the assays buffers were further filtered through a sterile Corning filtration unit (Corning Glass Works, Corning, N.Y.) containing a 0.2 micron filter. Buffer used to rinse the membranes on the assay filters was prepared with purified water, but was not refiltered and was stored no longer than 5 days. Stock solutions of the drugs (usually 10 mM) were dissolved in 20 mM HEPES-KOH buffer pH 7.4 (assay buffer) with the addition of from 1 to 5 μL of glacial AcOH, if needed to keep them in solution. Eliprodil was used as the reference NMDA antagonist. A stock solution of eliprodil was prepared and was buffered with the addition of 10% DMSO. All subsequent dilutions from the stock solution were made in buffer.
An extensively washed buffy coat membrane fraction was prepared from frozen adult rat forebrains (Zivic-Miller Laboratories, Inc., Zelienople, Pa.) as described by Coughenour L. L., Cordon J. J., J. Phannacol. Exp. Ther., 1997;280:584-592, and stored at −80° C. On the day of the assay, pellets of the frozen membrane fractions were resuspended in 35 mL of assay buffer at pH 7.4 using a POLYTRON (Kinematica A.G. Company, Littau, Switzerland) mixer at setting 6. After incubation at 37° C. for 30 minutes in a shaking water bath, the homogenate was centrifuged 40,000×g for 10 minutes at 4° C. The pellets were resuspended in fresh buffer and centrifuged 3 more times before final suspension for use in the assay.
Triplicate incubations were carried out in a volume of 0.5 mL in 1.3 mL polypropylene tubes (Marsh Biomedical Products Inc., Rochester, N.Y.) for 2 hours at room temperature. Incubations contained invention compounds, membranes (100-200 μg protein) and 4 nM [^3H]-ifenprodil in 20 mM HEPES-KOH buffer, pH 7.4 (assay buffer). Assays were started by addition of the membranes. Bound radioligand was separated by filtration under reduced pressure using a TOMTEC Mach II, 96 well cell harvester (Tomtec Inc, Orange, Conn.). Filtration was through Whatman GF/B glass fiber filters (Whatman Ltd., Maidstone, England), which had been soaked for at least 15 minutes in 0.3% polyethylenimine and allowed to air dry. The filters were rinsed with 3 mL of ice cold assay buffer within 6 seconds. Air was allowed to pass through the filters for an additional 10 seconds to remove residual moisture. The filter mat was supported on a cold (−20° C.) TEFLON (E. I. Du Pont de Nemours and Company, Wilmington, Del.) coated support, and filters from individual wells were separated and placed in Mini Poly-Q vials (Beckman Instruments Inc., Fullerton, Calif.) and filled with 4 mL of scintillation cocktail (Beckman Ready Protein^+). Radioactivity retained on the filter was determined by liquid scintillation spectrophotometry. Nonspecific binding was defined as the binding in the presence of 1 mM ifenprodil. 90% of the total binding of ifenprodil was specific binding at the NR1A/NR2B NMDA receptor subtype active site (as opposed to binding at a remote site).
Binding curves were statistically analyzed for a best one- or two-site competition fit using GRAPHPAD PRISM software (GraphPad Software Inc., San Diego, Calif.), a computer program used to analyze and graph scientific data. The normalized data was fitted by nonweighted nonlinear regression to either [formula]
Control data was entered as 100%, and no parameters were constrained. […]

Structures can show the parent of a compound that is named as a salt.

As a reminder, the melting point is the temperature of the solid-liquid transition. With `Cc1oc(-c2ccccc2)cc1CN(C)[C@H]1CC[C@H](c2ccc3[nH]c(=O)oc3c2)CC1` (as salt: hydrochloride) [Example 2, trans-6-{4-[Methyl-(2-methyl-5-phenyl-furan-3-ylmethyl)-amino]-cyclohexyl}-3H-benzoxazol-2-one], the melting point is 176 to 183 °C. `CN(CC1CC(c2ccc3[nH]c(=O)oc3c2)=NO1)[C@H]1CC[C@H](c2ccccc2)CC1` (relative stereo) (as salt: hydrochloride) [Example 1, trans-6-(5-{[Methyl-(4-phenyl-cyclohexyl)-amino]-methyl}-4,5-dihydro-isoxazol-3-yl)-3H-benzoxazol-2-one] came in with a melting point of 270 to 274 °C.

For orientation: IC50 means the concentration that inhibits the measured activity by half. A high value points to a need for much substance. Turning to `CN(CC1CC(c2ccc3[nH]c(=O)oc3c2)=NO1)[C@H]1CC[C@H](c2ccccc2)CC1` (relative stereo) [Example 1, trans-6-(5-{[Methyl-(4-phenyl-cyclohexyl)-amino]-methyl}-4,5-dihydro-isoxazol-3-yl)-3H-benzoxazol-2-one], the IC50 in data set [1] stood at 5900 nM. On to `CN(CC1CC(c2ccc(F)cc2)=NO1)[C@H]1CC[C@H](c2ccc3[nH]c(=O)oc3c2)CC1` (relative stereo) [Example 6b, trans-6-(4-{[3-(4-Fluoro-phenyl)-4,5-dihydro-isoxazol-5-ylmethyl]-methyl-amino}-cyclohexyl)-3H-benzoxazol-2-one], for which the melting point fell in the range of 109 to 114 °C. In data set [1], this compound showed an IC50 of 391 nM. `Cc1oc(-c2ccccc2)cc1CN(C)[C@H]1CC[C@H](c2ccc3[nH]c(=O)oc3c2)CC1` [Example 2, trans-6-{4-[Methyl-(2-methyl-5-phenyl-furan-3-ylmethyl)-amino]-cyclohexyl}-3H-benzoxazol-2-one] yielded an IC50 in data set [1] of 6670 nM. Still for that read-out and setting: in the case of `CN(C[C@@H]1CN(c2ccccc2)C(=O)O1)[C@H]1CC[C@H](c2ccc3[nH]c(=O)oc3c2)CC1` [Example 3b, trans-(R)-6-{4-[Methyl-(2-oxo-3-phenyl-oxazolidin-5-ylmethyl)-amino]-cyclohexyl}-3H-benzoxazol-2-one] it was 394 nM; in that of `O=C1OC(CNC2CCC(c3ccc(F)cc3)CC2)CN1c1ccc2[nH]c(=O)oc2c1` (stereo not drawn) [Example 4a, trans-6-{5-[4-(4-Fluoro-phenyl)-cyclohexylamino]-methyl-2-oxo-oxazolindin-3-yl}-3H-benzoxazol-2-one], > 1000 nM.

Turning to `CN(CC1CN(c2ccc3[nH]c(=O)oc3c2)C(=O)O1)C1CCC(c2ccc(F)cc2)CC1` (stereo not drawn) [Example 4b, trans-6-(5-{[4-(4-Fluoro-phenyl)-cyclohexyl]-methyl-amino}-methyl-2-oxo-oxazolindin-3-yl)-3H-benzoxazol-2-one], the IC50 in data set [1] is > 1000 nM. Take `Cc1sc(-c2ccccc2)nc1CN(C)[C@H]1CC[C@H](c2ccc3[nH]c(=O)oc3c2)CC1` [Example 5b, trans-6-{4-[Methyl-(5-methyl-2-phenyl-thiazol-4-ylmethyl)-amino]-cyclohexyl}-3H-benzoxazol-2-one]: the melting point lay in the range of 246 to 248 °C. Also, the IC50 in data set [1] came to 848 nM.
